According to paper PMC3780361 (Bioorganic & medicinal chemistry, 2013):

Tested on: M. tuberculosis strains resistant to 1
Type: cell-based

Compound	Cross resistance with strains resistant to 1
CC(C)(C)c1cc(NC(=O)NC2C3CC4CC(C3)CC2C4)no1 (centres unmarked) [Compound 46, 1-(2-adamantyl)-3-(5-t-butylisoxazol-3-yl)urea]	confirmed as on target against MmpL3
O=C(Nc1nnc(C2CCC2)o1)NC1C2CC3CC(C2)CC1C3 (centres unmarked) [Compound 51, 1-(2-adamantyl)-3-(5-cyclobutyl-1,3,4-oxadiazol-2-yl)urea]	confirmed as on target against MmpL3
